Read-outs that look alike come from different tables or passages of the source.
Key:
Assay in all cases: Test A preemergence
Format in all cases: in vivo
[1] = system: ryegrass, Italian (Italian ryegrass, Lolium multiflorum); settings: Lolium multiflorum, pre-emergence, 240 h; for pest or weed control at 125 g/ha: 125 g ai/ha; for pest or weed control at 500 g/ha: 500 g ai/ha
In short: (§1)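 Treatment is preemergence as a directed soil spray after planting, or postemergence at the one- to two-leaf stage, with test chemical in a non-phytotoxic solvent mixture plus surfactant. Plants stay in the greenhouse about 10 d before visual injury scoring on a 0 to 100 scale versus untreated controls.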

[2] = system: Kochia (Kochia scoparia); settings: Bassia scoparia, pre-emergence, 240 h; for pest or weed control at 125 g/ha: 125 g ai/ha; for pest or weed control at 500 g/ha: 500 g ai/ha
In short: as §1

[3] = system: ragweed (common ragweed, Ambrosia elatior); settings: Ambrosia artemisiifolia, pre-emergence, 240 h; for pest or weed control at 500 g/ha: 500 g ai/ha; for pest or weed control at 125 g/ha: 125 g ai/ha
In short: as §1

[4] = system: giant foxtail (Setaria faberii); settings: Setaria faberi, pre-emergence, 240 h; for pest or weed control at 125 g/ha: 125 g ai/ha; for pest or weed control at 500 g/ha: 500 g ai/ha
In short: as §1

[5] = system: pigweed (Amaranthus retroflexus); settings: Amaranthus retroflexus, pre-emergence, 240 h; for pest or weed control at 125 g/ha: 125 g ai/ha; for pest or weed control at 500 g/ha: 500 g ai/ha
[6] = Preemergence, visual injury rating after approximately 10 d, read-out: Ryegrass, Italian plant response rating (0 to 100 scale, 0 is no effect, 100 is complete control)
[7] = preemergence, visual injury rating about 10 d after treatment, 0 to 100 scale (0 no effect, 100 complete control), read-out: Ryegrass, Italian plant response rating
[8] = Preemergence, visual injury rating after approximately 10 d, read-out: Kochia plant response rating (0 to 100 scale, 0 is no effect, 100 is complete control)
[9] = preemergence, visual injury rating about 10 d after treatment, 0 to 100 scale (0 no effect, 100 complete control), read-out: Kochia plant response rating
[10] = preemergence, visual injury rating about 10 d after treatment, 0 to 100 scale (0 no effect, 100 complete control), read-out: Ragweed plant response rating
[11] = Preemergence, visual injury rating after approximately 10 d, read-out: Foxtail, Giant plant response rating (0 to 100 scale, 0 is no effect, 100 is complete control)
[12] = preemergence, visual injury rating about 10 d after treatment, 0 to 100 scale (0 no effect, 100 complete control), read-out: Foxtail, Giant plant response rating
[13] = Preemergence, visual injury rating after approximately 10 d, read-out: Pigweed plant response rating (0 to 100 scale, 0 is no effect, 100 is complete control)
[14] = preemergence, visual injury rating about 10 d after treatment, 0 to 100 scale (0 no effect, 100 complete control), read-out: Pigweed plant response rating
[15] = Preemergence, visual injury rating after approximately 10 d, read-out: Ragweed plant response rating (0 to 100 scale, 0 is no effect, 100 is complete control)

Compound | pest or weed control at 125 g/ha [1, 6] [%] | pest or weed control at 500 g/ha [1, 7] [%] | pest or weed control at 125 g/ha [2, 8] [%] | pest or weed control at 500 g/ha [2, 9] [%] | pest or weed control at 500 g/ha [3, 10] [%] | pest or weed control at 125 g/ha [4, 11] [%] | pest or weed control at 500 g/ha [4, 12] [%] | pest or weed control at 125 g/ha [5, 13] [%] | pest or weed control at 500 g/ha [5, 14] [%] | pest or weed control at 125 g/ha [3, 15] [%] | further results
Cc1cc([C@H]2CNC(=O)[C@@H]2C(=O)Nc2cccc(F)c2F)ccc1C(F)(F)F [Compound 1040] | 50 | 50 | 50 | 80 | 80 | 90 | 90 | 30 | 40 | – | –
Cc1cc([C@H]2CN(C)C(=O)[C@@H]2C(=O)Nc2cccc(F)c2F)ccc1Br [Compound 1099] | – | 70 | – | 70 | 60 | – | 90 | – | 30 | – | pest or weed control at 125 g/ha ([1]; preemergence, 0 to 100 scale where 0 is no effect and 100 is complete control, approx. 10 d, read-out: Ryegrass, Italian plant response rating): 50%; pest or weed control at 125 g/ha ([2]; preemergence, 0 to 100 scale where 0 is no effect and 100 is complete control, approx. 10 d, read-out: Kochia plant response rating): 60%; pest or weed control at 125 g/ha ([3]; preemergence, 0 to 100 scale where 0 is no effect and 100 is complete control, approx. 10 d, read-out: Ragweed plant response rating): 20%; pest or weed control at 125 g/ha ([4]; preemergence, 0 to 100 scale where 0 is no effect and 100 is complete control, approx. 10 d, read-out: Foxtail, Giant plant response rating): 90%; pest or weed control at 125 g/ha ([5]; preemergence, 0 to 100 scale where 0 is no effect and 100 is complete control, approx. 10 d, read-out: Pigweed plant response rating): 0%
Cc1ccc([C@H]2CNC(=O)[C@@H]2C(=O)Nc2cccc(F)c2C)cc1C [Compound 1035] | – | 70 | 0 | 50 | 70 | 90 | 90 | 0 | 0 | 20 | –
Cc1ccc([C@H]2CN(C)C(=O)[C@@H]2C(=O)Nc2cccc(F)c2C)cc1Cl [Compound 1014] | 0 | 70 | 20 | 70 | 0 | 90 | 90 | 30 | 30 | 0 | –
N#Cc1cccc(NC(=O)[C@H]2C(=O)NC[C@@H]2c2cccc(C(F)(F)F)c2)c1F [Compound 829] | – | – | – | – | – | – | – | – | – | – | pest or weed control at 125 g/ha ([1]; preemergence, 0 to 100 scale where 0 is no effect and 100 is complete control, read-out: Ryegrass, Italian plant response rating): 20%; pest or weed control at 500 g/ha ([1]; Preemergence, visual injury vs untreated controls after approximately 10 d, read-out: Ryegrass, Italian plant response rating (0 to 100 scale where 0 is no effect and 100 is complete control)): 40%; pest or weed control at 125 g/ha ([2]; preemergence, 0 to 100 scale where 0 is no effect and 100 is complete control, read-out: Kochia plant response rating): 60%; pest or weed control at 500 g/ha ([2]; Preemergence, visual injury vs untreated controls after approximately 10 d, read-out: Kochia plant response rating (0 to 100 scale where 0 is no effect and 100 is complete control)): 90%; pest or weed control at 125 g/ha ([3]; preemergence, 0 to 100 scale where 0 is no effect and 100 is complete control, read-out: Ragweed plant response rating): 30%; pest or weed control at 500 g/ha ([3]; Preemergence, visual injury vs untreated controls after approximately 10 d, read-out: Ragweed plant response rating (0 to 100 scale where 0 is no effect and 100 is complete control)): 70%; pest or weed control at 125 g/ha ([4]; preemergence, 0 to 100 scale where 0 is no effect and 100 is complete control, read-out: Foxtail, Giant plant response rating): 90%; pest or weed control at 500 g/ha ([4]; Preemergence, visual injury vs untreated controls after approximately 10 d, read-out: Foxtail, Giant plant response rating (0 to 100 scale where 0 is no effect and 100 is complete control)): 90%; pest or weed control at 125 g/ha ([5]; preemergence, 0 to 100 scale where 0 is no effect and 100 is complete control, read-out: Pigweed plant response rating): 0%; pest or weed control at 500 g/ha ([5]; Preemergence, visual injury vs untreated controls after approximately 10 d, read-out: Pigweed plant response rating (0 to 100 scale where 0 is no effect and 100 is complete control)): 60%
CSc1ccccc1NC(=O)[C@H]1C(=O)NC[C@@H]1c1ccc(C)c(C)c1 [Compound 1036] | 20 | 20 | 70 | 90 | 50 | 70 | 90 | 0 | 0 | 0 | –
